We go through 15 compounds from US10104891B2 (priority 2014, dated 2018).

Common to all, as to type: in vivo
The subject of one assay is Phytophthora infestans. The assay can be described thus: whole plant or invertebrate. The settings on record: Phytophthora infestans, in Solanum lycopersicum, 96 h, read-out: control value (Test 1).
For assay [1], the system named is Pseudoperonospora cubensis. The experiment in a line: Test 2: control effect against cucumber downy mildew. The settings on record: Pseudoperonospora cubensis, 120 h, control value vs untreated section. The gist of the method:
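Cucumber (Sagami hanjiro) at 2-leaf stage sprayed with 4 ppm compound from 10% wettable powder in Tween20 (1/5000); inoculated next day with P. cubensis zoospores, 1.0×10^4 units/ml, 16 hr moist chamber at 22° C. Lesion area rate scored 5 days post-inoculation; control value = (1 − treated/untreated onset area rate)×100.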

A further assay deals with Plasmopara viticola. The assay can be described thus: Test 3: control effect against grape downy mildew. The settings on record: Plasmopara viticola, 120 h, control value vs untreated section. The gist of the method: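 Neomuscat grape seedlings were sprayed with compound at 4 ppm, diluted from a 10% wettable powder in Tween20 solution. One day later they were inoculated with Plasmopara viticola zoospores at 1.0×10^4 units/ml and held moist at 22° C. for 16 hr. Control value was derived from leaf lesion area at 5 days versus untreated leaves.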

The subject of the next assay is Pythium graminicola. The assay can be described thus: Test 4: control effect against rice damping-off by the Pythium fungus (soil lavage). The settings on record: 1,000 ppm, 2.5 ml test suspension drenched on contaminated soil, rice (koshihikari). The procedure: A 10% wettable powder created according to the Pharmaceutical Formulation Example 1 was diluted with a Tween20 solution prepared to a concentration of 1/5000, then the compound of formula [1] was prepared to a concentration of 4 ppm. Further, the compound of formula [1] in Test 4 was adjusted to a concentration of 1,000 ppm.
<Test 4 Test of Control Effect Against Rice Damping-Off by the Pythium Fungus (Soil Lavage)>
Distilled water was added to the flora of Pythium graminicola cultured in bentoglass seed culture and stirred with a mixer, and adjusted the contaminated soil to 5 g of bacteria against 1 kg of soil.
In a cell tray having 31×31 mm^2 per cell, 20 ml of the contaminated soil was filled in each cell, and 3 seeds of rice chaff that has been forced to sprout (Species: koshihikari) were seeded, and 5 ml of soil was added for covering, then 2.5 ml of test suspension was drenched, and the seeds were incubated in a moist chamber adjusted to 28° C. for 72 hr to induce sprouting. Then, in a low temperature room of 5° C., the onset of disease was induced for 2 days, then the disease was nurtured for 14 days in a room of 25° C.
The soil was washed, and the apoptosis strain, growth restrained strain, and a healthy strain were measured and the onset rate was calculated by the following formula. Onset rate=[Σ(onset strain number by level×onset index)/(investigated strain×3)]×100 [Onset Index]
1: Growth restrained strain
Also, the following formula was used to compute the control value from the obtained onset index. control value={1−onset area rate at the section applied the test agent/onset area rate of untreated section}×100 Computational formula of the control value: […]

Some results are limits rather than exact numbers.

As for `Cc1cc(C(F)(F)F)nn1CC(=O)N1CCC(c2nc(C3OCc4cccc(C=O)c4CO3)cs2)CC1` (stereo not drawn) [Compound 1-70, 4-[4-(6-formyl-1,5-dihydro-3H-2,4-benzodioxepin-3-yl)-2-thiazolyl]-1-[2-[5-methyl-3-(trifluoromethyl)-1H-pyrazole-1-yl]acetyl]piperidine], the figures for the pest or weed control at 4 µg/mL (with Phytophthora infestans; in assay [1]; in the assay on Plasmopara viticola) were 100%, 60% and 100%, respectively. In the assay on Pythium graminicola, this compound registered a pest or weed control at 1000 ppm of at least 90%.
Turning to `Cc1cc(C(F)(F)F)nn1CC(=O)N1CCC(c2nc(C3OCc4cccc(CC#N)c4CO3)cs2)CC1` (stereo not drawn) [Compound 1-72, 4-[4-[6-(cyanomethyl)-1,5-dihydro-3H-2,4-benzodioxepin-3-yl]-2-thiazolyl]-1-[2-[5-methyl-3-(trifluoromethyl)-1H-pyrazole-1-yl]acetyl]piperidine], the pest or weed control at 4 µg/mL (in the assay with Phytophthora infestans; in assay [1]; with Plasmopara viticola) was 100% in each case. The compound also registered a pest or weed control at 1000 ppm in the assay with Pythium graminicola of at least 90%.
For `CC(C)(C)c1ccc2c(c1)COC(c1csc(C3CCN(C(=O)Cn4nc(C(F)F)cc4C(F)F)CC3)n1)OC2` (stereo not drawn) [Compound 1-78, 4-[4-(7-tert-butyl-1,5-dihydro-3H-2,4-benzodioxepin-3-yl)-2-thiazolyl]-1-[2-[3,5-bis(difluoromethyl)-1H-pyrazole-1-yl]acetyl]piperidine], the pest or weed control at 4 µg/mL (in the assay with Phytophthora infestans; in assay [1]; in the assay on Plasmopara viticola) was 100% throughout. In the assay on Pythium graminicola, this compound gave a pest or weed control at 1000 ppm of at least 90%.
Take `Cc1cc(C(F)(F)F)nn1CC(=O)N1CCC(c2nc(C3OCc4ccc(C(C)(C)C)cc4CO3)cs2)CC1` (stereo not drawn) [Compound 1-79, 4-[4-(7-tert-butyl-1,5-dihydro-3H-2,4-benzodioxepin-3-yl)-2-thiazolyl]-1-[2-[5-methyl-3-(trifluoromethyl)-1H-pyrazole-1-yl]acetyl]piperidine]: the pest or weed control at 4 µg/mL is 100% in the assay with Phytophthora infestans, 90% in assay [1] and 90% with Plasmopara viticola. This compound gave a pest or weed control at 1000 ppm in the assay with Pythium graminicola of at least 90%.
Take `O=C(Cn1nc(C(F)(F)F)cc1C(F)(F)F)N1CCC(c2nc(C3OCc4c(F)c(F)c(F)c(F)c4CO3)cs2)CC1` [Compound 1-84, 4-[4-(6,7,8,9-tetrafluoro-1,5-dihydro-3H-2,4-benzodioxepin-3-yl)-2-thiazolyl]-1-[2-[3,5-bis(trifluoromethyl)-1H-pyrazole-1-yl]acetyl]piperidine]: the pest or weed control at 4 µg/mL (in the assay on Phytophthora infestans; in assay [1]; in the assay with Plasmopara viticola) was 100% each time. In addition, the pest or weed control at 1000 ppm in the assay on Pythium graminicola was at least 90%.
On to `Cc1cc(C(F)(F)F)nn1CC(=O)N1CCC(c2nc(C3OCc4cccc(OS(=O)(=O)N(C)C)c4CO3)cs2)CC1` (stereo not drawn) [Compound 1-90, 4-[4-[6-(dimethylaminosulfonyloxy)-1,5-dihydro-3H-2,4-benzodioxepin-3-yl]-2-thiazolyl]-1-[2-[5-methyl-3-(trifluoromethyl)-1H-pyrazole-1-yl]acetyl]piperidine], for which the pest or weed control at 4 µg/mL (in the assay on Phytophthora infestans; in assay [1]; with Plasmopara viticola) was 100% each time. The compound further returned a pest or weed control at 1000 ppm in the assay on Pythium graminicola of at least 90%.
`O=C(Cn1nc(C(F)(F)F)cc1C(F)(F)F)N1CCC(c2nc(C3OCc4ccc(F)cc4CO3)cs2)CC1` (stereo not drawn) [Compound 1-91, 4-[4-(7-fluoro-1,5-dihydro-3H-2,4-benzodioxepin-3-yl)-2-thiazolyl]-1-[2-[3,5-bis(trifluoromethyl)-1H-pyrazole-1-yl]acetyl]piperidine]: the pest or weed control at 4 µg/mL (in the assay with Phytophthora infestans; in assay [1]; in the assay on Plasmopara viticola) was 100% in each case. This compound registered a pest or weed control at 1000 ppm in the assay on Pythium graminicola of at least 90%.
With `O=C(Cn1nc(C(F)(F)F)cc1C(F)(F)F)N1CCC(c2nc(C3OCc4ccc([N+](=O)[O-])cc4CO3)cs2)CC1` (stereo not drawn) [Compound 1-95, 4-[4-(7-nitro-1,5-dihydro-3H-2,4-benzodioxepin-3-yl)-2-thiazolyl]-1-[2-[3,5-bis(trifluoromethyl)-1H-pyrazole-1-yl]acetyl]piperidine], the pest or weed control at 4 µg/mL (with Phytophthora infestans; in assay [1]; in the assay on Plasmopara viticola) was 100% in each case. This compound also had a pest or weed control at 1000 ppm in the assay with Pythium graminicola of at least 90%.
As to `Cc1cc(C(F)(F)F)nn1CC(=O)N1CCC(c2nc(C3OCc4cccc(C=NO)c4CO3)cs2)CC1` (stereo not drawn) [Compound 1-96, 4-[4-[6-(hydroxyimino)methyl-1,5-dihydro-3H-2,4-benzodioxepin-3-yl]-2-thiazolyl]-1-[2-[5-methyl-3-(trifluoromethyl)-1H-pyrazole-1-yl]acetyl]piperidine], the pest or weed control at 4 µg/mL (with Phytophthora infestans; in assay [1]; with Plasmopara viticola) was 100% throughout. The compound also registered a pest or weed control at 1000 ppm with Pythium graminicola of at least 90%.
For `Cc1cc(C(F)(F)F)nn1CC(=O)N1CCC(c2nc(C3OCc4cccc(C(F)F)c4CO3)cs2)CC1` (stereo not drawn) [Compound 1-97, 4-[4-[6-(difluoromethyl)-1,5-dihydro-3H-2,4-benzodioxepin-3-yl]-2-thiazolyl]-1-[2-[5-methyl-3-(trifluoromethyl)-1H-pyrazole-1-yl]acetyl]piperidine], the pest or weed control at 4 µg/mL (in the assay on Phytophthora infestans; in assay [1]; in the assay with Plasmopara viticola) was 100% each time. The pest or weed control at 1000 ppm in the assay on Pythium graminicola was at least 90%.
For the compound `Cc1cc(C(F)(F)F)nn1CC(=O)N1CCC(c2nc(C3OCc4c(Br)ccc(Br)c4CO3)cs2)CC1` [Compound 1-100, 4-[4-(6,9-dibromo-1,5-dihydro-3H-2,4-benzodioxepin-3-yl)-2-thiazolyl]-1-[2-[5-methyl-3-(trifluoromethyl)-1H-pyrazole-1-yl]acetyl]piperidine], the pest or weed control at 4 µg/mL (in the assay on Phytophthora infestans; in assay [1]; with Plasmopara viticola) was 100% in each case. Also, the pest or weed control at 1000 ppm in the assay on Pythium graminicola was at least 90%.
On to `O=C(Cn1nc(C(F)F)cc1C(F)F)N1CCC(c2nc(C3OCc4cccc(Br)c4CO3)cs2)CC1` (stereo not drawn) [Compound 1-113, 4-[4-(6-bromo-1,5-dihydro-3H-2,4-benzodioxepin-3-yl)-2-thiazolyl]-1-[2-[3,5-bis(difluoromethyl)-1H-pyrazole-1-yl]acetyl]piperidine], for which the pest or weed control at 4 µg/mL (with Phytophthora infestans; in assay [1]; in the assay on Plasmopara viticola) was 100% throughout. In the assay with Pythium graminicola, this compound yielded a pest or weed control at 1000 ppm of at least 90%.
As to `COc1ccc(F)c2c1COC(c1csc(C3CCN(C(=O)Cn4nc(C(F)(F)F)cc4C)CC3)n1)OC2` (stereo not drawn) [Compound 1-133, 4-[4-(6-fluoro-9-methoxy-1,5-dihydro-3H-2,4-benzodioxepin-3-yl)-2-thiazolyl]-1-[2-[5-methyl-3-(trifluoromethyl)-1H-pyrazole-1-yl]acetyl]piperidine], the pest or weed control at 4 µg/mL (with Phytophthora infestans; in assay [1]; in the assay with Plasmopara viticola) was 100% in each case. In addition, the pest or weed control at 1000 ppm in the assay on Pythium graminicola is at least 90%.
Regarding `COc1cccc2c1COC(c1csc(C3CCN(C(=O)Cn4nc(C(F)(F)F)cc4C(F)(F)F)CC3)n1)OC2` (stereo not drawn) [Compound 1-140, 4-[4-(6-methoxy-1,5-dihydro-3H-2,4-benzodioxepin-3-yl)-2-thiazolyl]-1-[2-[3,5-bis(trifluoromethyl)-1H-pyrazole-1-yl]acetyl]piperidine], the pest or weed control at 4 µg/mL (with Phytophthora infestans; in assay [1]; with Plasmopara viticola) was 100% in each case. In addition, the pest or weed control at 1000 ppm in the assay with Pythium graminicola was at least 90%.
On to `CC(=O)Oc1cccc2c1COC(c1csc(C3CCN(C(=O)Cn4nc(C(F)(F)F)cc4C)CC3)n1)OC2` (stereo not drawn) [Compound 1-144, 4-[4-(6-acetoxy-1,5-dihydro-3H-2,4-benzodioxepin-3-yl)-2-thiazolyl]-1-[2-[5-methyl-3-(trifluoromethyl)-1H-pyrazole-1-yl]acetyl]piperidine], for which the pest or weed control at 4 µg/mL (with Phytophthora infestans; in assay [1]; in the assay on Plasmopara viticola) was 100% in each case. Moreover, the pest or weed control at 1000 ppm in the assay on Pythium graminicola is at least 90%.
